In ChEMBL document CHEMBL3758169, “4-Aminoindazolyl-dihydrofuro[3,4-d]pyrimidines as non-covalent inhibitors of mutant epidermal growth factor receptor tyrosine kinase” (Bioorg Med Chem Lett, 2016):

How the values were obtained:
[1] = target: Serine/threonine-protein kinase BRSK1 (Homo sapiens) (UniProt Q8TDC3); assay: Inhibition of BRSK1 (unknown origin) at 100 nM
[2] = target: Serine/threonine-protein kinase PAK 6 (Homo sapiens) (UniProt Q9NQU5); assay: Inhibition of PAK6 (unknown origin) at 100 nM
[3] = target: Mitogen-activated protein kinase 11 (Homo sapiens) (UniProt Q15759); assay: Inhibition of p38beta(unknown origin) at 100 nM
[4] = target: Protein kinase C iota type (Homo sapiens) (UniProt P41743); assay: Inhibition of PKCiota (unknown origin) at 100 nM
[5] = target: Serine/threonine-protein kinase TAO3 (Homo sapiens) (UniProt Q9H2K8); assay: Inhibition of TAO3 (unknown origin) at 100 nM
[6] = target: Serine/threonine-protein kinase Sgk2 (Homo sapiens) (UniProt Q9HBY8); assay: Inhibition of SGK2 (unknown origin) at 100 nM
[7] = target: Fibroblast growth factor receptor 4 (Homo sapiens) (UniProt P22455); assay: Inhibition of FGFR4 (unknown origin) at 100 nM
[8] = target: Serine/threonine-protein kinase MARK2 (Homo sapiens) (UniProt Q7KZI7); assay: Inhibition of MARK2 (unknown origin) at 100 nM
[9] = target: Sphingosine kinase 2 (Homo sapiens) (UniProt Q9NRA0); assay: Inhibition of SPHK2 (unknown origin) at 100 nM
[10] = target: BDNF/NT-3 growth factors receptor (Homo sapiens) (UniProt Q16620); assay: Inhibition of TRKB (unknown origin) at 100 nM
[11] = target: Leukocyte tyrosine kinase receptor (Homo sapiens) (UniProt P29376); assay: Inhibition of LTK (unknown origin) at 100 nM
[12] = species: Homo sapiens; assay: Inhibition of MKK6 S207E/T211E double mutant (unknown origin) at 100 nM
[13] = target: LIM domain kinase 2 (Homo sapiens) (UniProt P53671); assay: Inhibition of LIMK2 (unknown origin) at 100 nM
Sequence of LIM domain kinase 2 (Homo sapiens) (P53671 whole entry, looked up, the tested form may be a part): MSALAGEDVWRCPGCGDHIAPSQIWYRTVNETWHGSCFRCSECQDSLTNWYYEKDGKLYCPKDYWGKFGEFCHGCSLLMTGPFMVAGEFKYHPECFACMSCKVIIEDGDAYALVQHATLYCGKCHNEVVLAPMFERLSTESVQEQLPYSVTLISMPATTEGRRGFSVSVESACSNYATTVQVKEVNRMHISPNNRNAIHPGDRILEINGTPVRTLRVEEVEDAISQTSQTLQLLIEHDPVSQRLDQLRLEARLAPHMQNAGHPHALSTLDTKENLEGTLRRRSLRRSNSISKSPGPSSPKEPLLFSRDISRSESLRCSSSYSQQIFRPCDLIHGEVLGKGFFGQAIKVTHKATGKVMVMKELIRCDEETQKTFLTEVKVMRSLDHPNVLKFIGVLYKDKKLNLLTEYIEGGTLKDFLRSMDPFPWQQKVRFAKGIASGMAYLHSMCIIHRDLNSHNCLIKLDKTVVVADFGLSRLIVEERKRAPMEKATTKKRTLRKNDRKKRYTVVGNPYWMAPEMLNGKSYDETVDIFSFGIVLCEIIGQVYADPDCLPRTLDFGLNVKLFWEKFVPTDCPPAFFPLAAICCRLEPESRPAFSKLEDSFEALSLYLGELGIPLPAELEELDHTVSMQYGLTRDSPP

[14] = target: G protein-coupled receptor kinase 5 (Homo sapiens) (UniProt P34947); assay: Inhibition of GRK5 (unknown origin) at 100 nM
[15] = target: Calcium/calmodulin-dependent protein kinase type 1D (Homo sapiens) (UniProt Q8IU85); assay: Inhibition of CaMKIdelta (unknown origin) at 100 nM
[16] = target: Serine/threonine-protein kinase 16 (Homo sapiens) (UniProt O75716); assay: Inhibition of STK16 (unknown origin) at 100 nM
[17] = target: Serine/threonine-protein kinase haspin (Homo sapiens) (UniProt Q8TF76); assay: Inhibition of Haspin (unknown origin) at 100 nM
[18] = target: Protein kinase C zeta type (Homo sapiens) (UniProt Q05513); assay: Inhibition of PKCzeta (unknown origin) at 100 nM
[19] = target: Protein kinase C alpha type (Homo sapiens) (UniProt P17252); assay: Inhibition of PKCalpha (unknown origin) at 100 nM
[20] = target: Receptor tyrosine-protein kinase erbB-4 (Homo sapiens) (UniProt Q15303); assay: Inhibition of ERBB4 (unknown origin) at 100 nM
[21] = target: Discoidin domain-containing receptor 2 (Homo sapiens) (UniProt Q16832); assay: Inhibition of DDR2 (unknown origin) at 100 nM
Sequence of Discoidin domain-containing receptor 2 (Homo sapiens) (Q16832 whole entry, the tested form may be a part): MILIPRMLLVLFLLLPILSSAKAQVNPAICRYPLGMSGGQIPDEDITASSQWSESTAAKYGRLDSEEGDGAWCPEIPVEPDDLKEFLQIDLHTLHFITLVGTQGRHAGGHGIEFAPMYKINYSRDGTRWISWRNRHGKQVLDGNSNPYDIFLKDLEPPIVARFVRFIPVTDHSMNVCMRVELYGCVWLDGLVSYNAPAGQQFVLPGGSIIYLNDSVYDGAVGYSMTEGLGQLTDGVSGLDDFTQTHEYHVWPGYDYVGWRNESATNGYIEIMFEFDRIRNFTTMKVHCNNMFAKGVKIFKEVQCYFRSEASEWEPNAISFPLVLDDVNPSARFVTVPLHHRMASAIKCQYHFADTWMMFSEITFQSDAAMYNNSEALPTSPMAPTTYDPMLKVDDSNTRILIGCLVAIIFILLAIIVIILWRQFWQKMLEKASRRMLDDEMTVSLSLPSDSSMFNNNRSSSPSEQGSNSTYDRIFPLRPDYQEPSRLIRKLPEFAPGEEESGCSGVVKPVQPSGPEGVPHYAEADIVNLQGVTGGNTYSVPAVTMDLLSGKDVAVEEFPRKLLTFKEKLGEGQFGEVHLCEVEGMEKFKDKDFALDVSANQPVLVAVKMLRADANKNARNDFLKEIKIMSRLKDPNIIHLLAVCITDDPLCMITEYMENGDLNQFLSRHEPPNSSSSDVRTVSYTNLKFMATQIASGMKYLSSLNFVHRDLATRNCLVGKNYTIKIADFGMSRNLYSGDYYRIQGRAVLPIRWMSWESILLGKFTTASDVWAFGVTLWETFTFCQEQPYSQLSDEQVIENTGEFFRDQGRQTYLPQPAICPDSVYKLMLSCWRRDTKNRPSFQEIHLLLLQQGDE

[22] = tested on: Platelet-derived growth factor receptor alpha (Homo sapiens), P16234 [D842V]; assay: Inhibition of PDGFRalpha D842V mutant (unknown origin) at 100 nM
[23] = target: Mitogen-activated protein kinase 9 (Homo sapiens) (UniProt P45984); assay: Inhibition of JNK2 (unknown origin) at 100 nM
Sequence of Mitogen-activated protein kinase 9 (Homo sapiens) (P45984 whole entry, looked up): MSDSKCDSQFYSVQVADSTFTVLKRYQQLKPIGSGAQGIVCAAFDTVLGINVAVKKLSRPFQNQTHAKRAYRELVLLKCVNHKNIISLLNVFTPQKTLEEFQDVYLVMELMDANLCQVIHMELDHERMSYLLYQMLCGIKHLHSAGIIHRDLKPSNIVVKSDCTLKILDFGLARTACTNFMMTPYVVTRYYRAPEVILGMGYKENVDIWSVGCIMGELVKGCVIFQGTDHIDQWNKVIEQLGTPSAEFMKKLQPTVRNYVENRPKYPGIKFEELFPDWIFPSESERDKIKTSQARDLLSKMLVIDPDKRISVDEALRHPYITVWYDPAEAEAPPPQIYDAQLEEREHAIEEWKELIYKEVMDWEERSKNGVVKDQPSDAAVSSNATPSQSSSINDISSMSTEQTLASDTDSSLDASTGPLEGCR

[24] = species: Homo sapiens; assay: Inhibition of MET I250T mutant (unknown origin) at 100 nM
[25] = target: Mitogen-activated protein kinase 12 (Homo sapiens) (UniProt P53778); assay: Inhibition of p38gamma(unknown origin) at 100 nM
[26] = target: Bone morphogenetic protein receptor type-1A (Homo sapiens) (UniProt P36894); assay: Inhibition of BMPR1A (unknown origin) at 100 nM
[27] = target: Tyrosine-protein kinase TXK (Homo sapiens) (UniProt P42681); assay: Inhibition of TXK (unknown origin) at 100 nM
[28] = target: Serine/threonine-protein kinase Sgk3 (Homo sapiens) (UniProt Q96BR1); assay: Inhibition of SGK3 (unknown origin) at 100 nM
[29] = target: Serine/threonine-protein kinase 3 (Homo sapiens) (UniProt Q13188); assay: Inhibition of MST2 (unknown origin) at 100 nM
[30] = Oral bioavailability in rat at 5 mg/kg; assay type: ADME, organism-based; details: in vivo
[31] = target: Rhodopsin kinase GRK7 (Homo sapiens) (UniProt Q8WTQ7); assay: Inhibition of GRK7 (unknown origin) at 100 nM
[32] = target: Homeodomain-interacting protein kinase 4 (Homo sapiens) (UniProt Q8NE63); assay: Inhibition of HIPK4 (unknown origin) at 100 nM
[33] = target: 5'-AMP-activated protein kinase catalytic subunit alpha-2 (Homo sapiens) (UniProt P54646); assay: Inhibition of PRKAA2 (unknown origin) at 100 nM
[34] = target: Dual specificity tyrosine-phosphorylation-regulated kinase 4 (Homo sapiens) (UniProt Q9NR20); assay: Inhibition of DYRK4 (unknown origin) at 100 nM
[35] = target: Mitogen-activated protein kinase kinase kinase 2 (Homo sapiens) (UniProt Q9Y2U5); assay: Inhibition of MEKK2 (unknown origin) at 100 nM
[36] = target: Serine/threonine-protein kinase 26 (Homo sapiens) (UniProt Q9P289); assay: Inhibition of MST4 (unknown origin) at 100 nM
Sequence of Serine/threonine-protein kinase 26 (Homo sapiens) (Q9P289 2-416 limits assumed): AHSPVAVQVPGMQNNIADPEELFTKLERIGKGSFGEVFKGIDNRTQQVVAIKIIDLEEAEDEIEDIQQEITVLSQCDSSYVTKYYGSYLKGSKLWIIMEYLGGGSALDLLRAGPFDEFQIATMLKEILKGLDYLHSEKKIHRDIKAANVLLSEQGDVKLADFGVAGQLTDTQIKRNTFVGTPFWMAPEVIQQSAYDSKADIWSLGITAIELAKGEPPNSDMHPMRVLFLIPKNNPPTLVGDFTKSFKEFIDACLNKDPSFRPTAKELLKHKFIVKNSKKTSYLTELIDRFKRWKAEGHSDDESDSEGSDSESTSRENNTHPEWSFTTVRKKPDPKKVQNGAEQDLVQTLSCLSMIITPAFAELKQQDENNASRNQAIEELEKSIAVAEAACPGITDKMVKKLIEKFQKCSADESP

[37] = target: Epidermal growth factor receptor (Homo sapiens, UniProt P00533, L858R/T790M); assay: Inhibition of EGFR T790M/L858R mutant autophosphorylation in human H1975 cells; assay type: cell-based
[38] = target: Tyrosine-protein kinase Tec (Homo sapiens) (UniProt P42680); assay: Inhibition of TEC (unknown origin) at 100 nM
[39] = target: Glycogen synthase kinase-3 alpha (Homo sapiens) (UniProt P49840); assay: Inhibition of GSK3aplha (unknown origin) at 100 nM
[40] = target: Mitogen-activated protein kinase kinase kinase 5 (Homo sapiens) (UniProt Q99683); assay: Inhibition of ASK1 (unknown origin) at 100 nM
[41] = target: Protein kinase C theta type (Homo sapiens) (UniProt Q04759); assay: Inhibition of PKCtheta (unknown origin) at 100 nM
Sequence of Protein kinase C theta type (Homo sapiens) (Q04759 whole entry, looked up): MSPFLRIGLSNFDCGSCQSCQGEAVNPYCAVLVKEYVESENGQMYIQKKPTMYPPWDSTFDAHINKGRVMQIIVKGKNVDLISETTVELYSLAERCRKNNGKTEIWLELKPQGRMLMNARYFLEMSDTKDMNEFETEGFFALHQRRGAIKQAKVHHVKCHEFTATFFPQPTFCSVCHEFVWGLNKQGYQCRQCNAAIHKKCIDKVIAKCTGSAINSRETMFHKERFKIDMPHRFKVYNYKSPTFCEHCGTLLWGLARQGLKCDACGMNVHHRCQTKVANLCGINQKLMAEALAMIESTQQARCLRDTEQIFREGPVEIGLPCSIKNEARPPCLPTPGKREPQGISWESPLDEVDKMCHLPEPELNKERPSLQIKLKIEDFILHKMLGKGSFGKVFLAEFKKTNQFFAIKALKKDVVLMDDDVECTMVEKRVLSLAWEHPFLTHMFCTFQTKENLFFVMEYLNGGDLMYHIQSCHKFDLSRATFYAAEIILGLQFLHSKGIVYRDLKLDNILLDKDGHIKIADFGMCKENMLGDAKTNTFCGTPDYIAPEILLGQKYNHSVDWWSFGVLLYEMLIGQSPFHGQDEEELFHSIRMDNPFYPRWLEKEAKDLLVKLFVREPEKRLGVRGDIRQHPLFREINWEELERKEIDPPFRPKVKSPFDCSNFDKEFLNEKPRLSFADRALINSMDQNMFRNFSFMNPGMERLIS

[42] = target: Dual specificity tyrosine-phosphorylation-regulated kinase 1B (Homo sapiens) (UniProt Q9Y463); assay: Inhibition of DYRK1B (unknown origin) at 100 nM
[43] = target: Homeodomain-interacting protein kinase 1 (Homo sapiens) (UniProt Q86Z02); assay: Inhibition of HIPK1 (unknown origin) at 100 nM
Sequence of Homeodomain-interacting protein kinase 1 (Homo sapiens) (Q86Z02 whole entry, looked up): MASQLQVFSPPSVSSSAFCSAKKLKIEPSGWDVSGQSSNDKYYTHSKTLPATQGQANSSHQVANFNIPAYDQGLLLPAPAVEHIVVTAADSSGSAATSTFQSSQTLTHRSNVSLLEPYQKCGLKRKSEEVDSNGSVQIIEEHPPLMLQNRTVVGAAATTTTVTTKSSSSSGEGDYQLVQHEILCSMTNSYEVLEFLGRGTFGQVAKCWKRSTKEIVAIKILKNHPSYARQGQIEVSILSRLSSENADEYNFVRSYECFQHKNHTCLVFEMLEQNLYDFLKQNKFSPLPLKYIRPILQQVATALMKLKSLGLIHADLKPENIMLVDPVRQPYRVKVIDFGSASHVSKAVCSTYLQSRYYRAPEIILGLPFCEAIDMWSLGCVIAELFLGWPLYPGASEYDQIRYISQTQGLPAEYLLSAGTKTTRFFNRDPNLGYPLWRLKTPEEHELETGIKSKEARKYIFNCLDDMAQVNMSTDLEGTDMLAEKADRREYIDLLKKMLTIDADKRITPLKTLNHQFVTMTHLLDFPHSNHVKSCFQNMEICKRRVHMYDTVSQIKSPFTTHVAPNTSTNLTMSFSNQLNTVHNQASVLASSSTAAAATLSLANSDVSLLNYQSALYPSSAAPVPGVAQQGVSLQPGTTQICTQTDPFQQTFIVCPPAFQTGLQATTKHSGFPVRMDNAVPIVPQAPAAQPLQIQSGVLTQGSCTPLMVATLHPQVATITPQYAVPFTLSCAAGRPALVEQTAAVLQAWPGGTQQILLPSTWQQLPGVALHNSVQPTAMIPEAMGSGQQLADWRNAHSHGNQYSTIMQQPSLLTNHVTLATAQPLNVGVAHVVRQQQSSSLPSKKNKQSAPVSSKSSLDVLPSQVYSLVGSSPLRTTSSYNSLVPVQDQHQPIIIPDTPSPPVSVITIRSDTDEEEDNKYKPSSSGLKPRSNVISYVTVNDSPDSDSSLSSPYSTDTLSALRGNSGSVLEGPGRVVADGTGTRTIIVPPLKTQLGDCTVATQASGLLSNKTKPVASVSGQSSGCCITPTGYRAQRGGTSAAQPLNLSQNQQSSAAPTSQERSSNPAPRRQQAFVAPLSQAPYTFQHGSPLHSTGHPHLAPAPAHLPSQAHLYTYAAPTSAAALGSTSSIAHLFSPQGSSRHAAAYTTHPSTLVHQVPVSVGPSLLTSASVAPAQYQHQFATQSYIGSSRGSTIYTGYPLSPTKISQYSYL

[44] = target: Protein kinase C eta type (Homo sapiens) (UniProt P24723); assay: Inhibition of PKCeta (unknown origin) at 100 nM

CC1(C)OCc2c(Nc3n[nH]c4ccccc34)nc(-c3cn[nH]c3)nc21
inhibition [1]: 1.7% | inhibition [2]: -0.3% | inhibition [3]: 8.7% | inhibition [4]: -1.5% | inhibition [5]: 6.2% | inhibition [6]: 2.8% | inhibition [7]: 14.7% | inhibition [8]: -5.3% | inhibition [9]: -9.8% | inhibition [10]: -1.4% | inhibition [11]: 32% | inhibition [12]: 10.2% | inhibition [13]: -2.1% | inhibition [14]: -1.4% | inhibition [15]: -5.3% | inhibition [16]: 29.5% | inhibition [17]: 8.1% | inhibition [18]: 7.2% | inhibition [19]: 7% | inhibition [20]: 89.9% | inhibition [21]: 23.4% | inhibition [22]: 77.3% | inhibition [23]: 44.8% | inhibition [24]: 4% | inhibition [25]: 10.3% | inhibition [26]: 16.8% | inhibition [27]: 61.5% | inhibition [28]: 3.1% | inhibition [29]: -2.4% | bioavailability [30]: 13% | inhibition [31]: 0.8% | inhibition [32]: 5.1% | inhibition [33]: 10.9% | inhibition [34]: 0.7% | inhibition [35]: 43.6% | inhibition [36]: 0.2% | IC50 [37]: 600 nM | inhibition [38]: 0.1% | inhibition [39]: 30.8% | inhibition [40]: 4.2% | inhibition [41]: 4.5% | inhibition [42]: -1.6% | inhibition [43]: -2% | inhibition [44]: 15.5%
